Assay results taken from patent publication US20250205191A1, “R(-)-MDMA COMPOSITIONS AND METHODS OF TREATMENT” (EmpathBio, Inc., priority 2023, published 2025).

How the values were obtained:
[1] = target: T1, human 5-HT2B receptor (Homo sapiens, UniProt P41595); assay: 5-HT2B agonism, inositol monophosphate accumulation (HTRF), CHO-K1 recombinant cells; format: cell-based; details: 5-HT2B
T1 construct: expressed in transfected cells; host or cells: CHO-K1

[2] = system: male C57BL/6J mice; assay: Mouse extinction of fear learning assay; format: in vivo; details: 7.8 mg/kg IP once, vs vehicle
Method: Extinction of fear learning in rodents is a useful assay to understand if compounds have the potential to enhance learning processes that may be involved in recovery from SAD and other stress and anxiety related disorders, due to its resemblance to exposure-based therapy in humans. […] Freezing behavior, an indicator of the fear response, was measured in the presence of the CS during the extinction training session (Day 1) and the day after (Day 2, Extinction Testing, in the absence of test article). Locomotor activity was measured during the initial 2-minute habituation period, prior to the presentation of the CS, on Days 1 and 2.

[3] = target: T2, human 5-HT2C (edited) receptor (Homo sapiens, UniProt P28335); assay: 5-HT2C (edited) agonism, inositol monophosphate accumulation (HTRF), CHO-K1 recombinant cells; format: cell-based; details: 5-HT2C (edited); relative to α-Me-5-HT at its EC100
T2 sequence (P28335 33-458): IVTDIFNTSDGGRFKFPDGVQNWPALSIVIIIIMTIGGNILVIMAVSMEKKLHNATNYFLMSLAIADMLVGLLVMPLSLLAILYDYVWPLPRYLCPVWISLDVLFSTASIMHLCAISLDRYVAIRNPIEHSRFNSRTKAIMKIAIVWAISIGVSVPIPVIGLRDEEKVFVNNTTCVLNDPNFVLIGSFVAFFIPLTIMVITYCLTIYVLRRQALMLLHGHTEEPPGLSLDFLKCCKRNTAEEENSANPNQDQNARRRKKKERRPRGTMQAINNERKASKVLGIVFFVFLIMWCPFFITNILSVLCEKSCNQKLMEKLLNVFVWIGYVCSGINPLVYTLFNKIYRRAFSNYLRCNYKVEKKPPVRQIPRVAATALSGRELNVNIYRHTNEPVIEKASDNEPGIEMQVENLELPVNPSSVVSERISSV

[4] = system: healthy volunteers; details: racemic MDMA at 125 mg, comparison in FIG. 11; cited from earlier work
[5] = system: healthy volunteers; details: published report (Hysek et al., 2014); cited from earlier work
[6] = target: T3, human 5-HT2C (non-edited) receptor (Homo sapiens, UniProt P28335); assay: 5-HT2C (non-edited) agonism, inositol monophosphate accumulation (HTRF), CHO-K1 recombinant cells; format: cell-based; details: 5-HT2C (non-edited); relative to α-Me-5-HT at its EC100
T3 construct: expressed in transfected cells; host or cells: CHO-K1
T3 sequence (P28335 33-458): T2 sequence (P28335 33-458)

[7] = target: T4, human 5-HT2A receptor (Homo sapiens, UniProt P28223); assay: 5-HT2A agonism, inositol monophosphate accumulation (HTRF), CHO-K1 recombinant cells; format: cell-based; details: 5-HT2A
T4 construct: expressed in transfected cells; host or cells: CHO-K1

[8] = Phase 1 clinical study, urine pharmacokinetics (urinalysis); format: in vivo, human
[9] = Phase 1 clinical study, plasma pharmacokinetics; details: for AUC0-t / Cmax / t1/2: mean (SD); for Tmax: median (minimum, maximum)
[10] = system: rat embryonic cortical neurons; assay: In vitro rat cortical neurite outgrowth; format: cell-based; details: 250 nM positive control, vs vehicle
Method: The experiment included a 0.1% sterile water vehicle negative control condition and a 250 nM donepezil positive control condition, and the number of neurites per neuron, total neurite length per neuron and branchpoints per neuron from n=12 wells per treatment were compared to the vehicle control condition.

[11] = relative to α-Me-5-HT at its EC100
[12] = urine analyte after EMP-01 125 mg, Day 9
[13] = urine analyte after single oral 75 mg R(−)-MDMA, Day 1
[14] = urine analyte after single oral 125 mg R(−)-MDMA, Day 1
[15] = urine analyte after single oral 175 mg R(−)-MDMA, Day 1
[16] = urine analyte after single oral 225 mg R(−)-MDMA, Day 1
[17] = plasma analyte after oral 125 mg R(−)-MDMA, Day 9
[18] = plasma analyte after single oral 75 mg R(−)-MDMA, Day 1
[19] = plasma analyte after single oral 125 mg R(−)-MDMA, Day 1
[20] = plasma analyte after single oral 175 mg R(−)-MDMA, Day 1
[21] = plasma analyte after single oral 225 mg R(−)-MDMA, Day 1

T4 sequence (P28223 whole entry): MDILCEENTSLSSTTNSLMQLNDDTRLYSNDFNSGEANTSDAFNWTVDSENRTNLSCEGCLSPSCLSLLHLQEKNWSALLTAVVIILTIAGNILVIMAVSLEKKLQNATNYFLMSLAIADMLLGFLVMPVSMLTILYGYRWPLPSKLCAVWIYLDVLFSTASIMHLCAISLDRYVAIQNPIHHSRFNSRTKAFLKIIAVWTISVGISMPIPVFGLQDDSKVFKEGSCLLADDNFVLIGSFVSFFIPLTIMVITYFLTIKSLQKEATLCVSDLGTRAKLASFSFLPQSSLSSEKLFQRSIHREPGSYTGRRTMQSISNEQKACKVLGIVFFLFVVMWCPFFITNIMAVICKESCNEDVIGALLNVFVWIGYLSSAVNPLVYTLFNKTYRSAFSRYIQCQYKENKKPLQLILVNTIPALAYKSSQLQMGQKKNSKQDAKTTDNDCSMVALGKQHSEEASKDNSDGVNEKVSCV
T1 sequence (P41595 whole entry): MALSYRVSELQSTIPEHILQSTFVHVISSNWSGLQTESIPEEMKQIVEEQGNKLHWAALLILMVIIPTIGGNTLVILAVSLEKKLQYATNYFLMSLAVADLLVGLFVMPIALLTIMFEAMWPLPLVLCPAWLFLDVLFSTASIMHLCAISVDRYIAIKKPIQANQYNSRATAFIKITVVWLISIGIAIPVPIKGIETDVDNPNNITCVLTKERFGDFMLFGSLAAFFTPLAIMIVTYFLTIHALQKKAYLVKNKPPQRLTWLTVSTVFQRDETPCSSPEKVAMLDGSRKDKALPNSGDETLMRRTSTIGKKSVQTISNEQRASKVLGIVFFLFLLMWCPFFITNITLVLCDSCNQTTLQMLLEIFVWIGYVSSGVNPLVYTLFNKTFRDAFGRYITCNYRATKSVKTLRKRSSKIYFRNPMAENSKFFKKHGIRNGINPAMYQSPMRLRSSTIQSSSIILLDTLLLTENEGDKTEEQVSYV

## CNC(C)Cc1ccc2c(c1)OCO2 (racemic) [Racemic MDMA, 3,4-methylenedioxymethamphetamine, reference compound]
[1]; CHO-K1, IP accumulation
  EC50: 194 nM
[1]; [11]
  Efficacy (% of a-Me-5-HT response): 91.2%
[2]; 30 min prior to extinction training
  freezing behavior: significantly reduced freezing behavior on Days 1 and 2
[2]
  locomotor activity: increased locomotor activity on Days 1 and 2
[3]
  Efficacy (% of a-Me-5-HT response): 97.7%
[4]
  11D-ASC response profile: no visual hallucinations and little to no insight
[5]
  reduction of bias to angry faces: 12.5%
[6]
  Efficacy (% of a-Me-5-HT response): 95.3%
[7]; CHO-K1, IP accumulation
  EC50: 4730 nM
[7]; [11]
  Efficacy (% of a-Me-5-HT response): 68.4%

## C[C@@H](N)Cc1ccc2c(c1)OCO2 [R-MDA]
[8]; [12]
  Ae12-24, amount excreted at the 12-24 hour collection interval: 0.9794 (0.8552) mg
  CAe, cumulative amount of drug excreted: 0.9794 (0.8552) mg
  CFe, cumulative fraction of drug excreted: 1.2746 (0.7265) %
  CLr, renal clearance rate: 5.3793 (1.5400) L/h
  Fe12-24, fraction of drug excreted at the 12-24 hour collection interval: 0.7835 (0.6842) %
[8]; [13]
  Ae12-24, amount excreted at the 12-24 hour collection interval: 0.4622 (0.1101) mg
  CAe, cumulative amount of drug excreted: 0.8510 (0.2149) mg
  CFe, cumulative fraction of drug excreted: 1.1347 (0.2865) %
  CLr, renal clearance rate: 4.6787 (0.8471) L/h
  Fe12-24, fraction of drug excreted at the 12-24 hour collection interval: 0.6163 (0.1468) %
[8]; [14]
  Ae12-24, amount excreted at the 12-24 hour collection interval: 0.7850 (0.4299) mg
  CAe, cumulative amount of drug excreted: 1.1628 (0.4509) mg
  CFe, cumulative fraction of drug excreted: 0.9302 (0.3608) %
  CLr, renal clearance rate: 3.7173 (0.9547) L/h
  Fe12-24, fraction of drug excreted at the 12-24 hour collection interval: 0.6280 (0.3440) %
[8]; [15]
  Ae12-24, amount excreted at the 12-24 hour collection interval: 0.7076 (0.4510) mg
  CAe, cumulative amount of drug excreted: 1.4788 (0.8740) mg
  CFe, cumulative fraction of drug excreted: 0.8450 (0.4995) %
  CLr, renal clearance rate: 4.3945 (2.1019) L/h
  Fe12-24, fraction of drug excreted at the 12-24 hour collection interval: 0.4043 (0.2577) %
[8]; [16]
  Ae12-24, amount excreted at the 12-24 hour collection interval: 0.8450 (0.4995) mg
  CAe, cumulative amount of drug excreted: 1.9805 (0.8173) mg
  CFe, cumulative fraction of drug excreted: 0.5432 (0.2708) %
  CLr, renal clearance rate: 5.1337 (2.2871) L/h
  Fe12-24, fraction of drug excreted at the 12-24 hour collection interval: 0.8802 (0.3633) %
[9]; metabolite after oral R(−)-MDMA
  time of peak of mean plasma concentration: approximately 12 hours postdose
[9]; [17]
  AUC0-t: 291.6730 (112.2988) h · ng/mL
  Cmax: 13.3733 (2.3199) ng/mL
  t1/2: 143.1218 (145.7332) hr
  Tmax: 12.042 (12.00, 30.00) hr
[9]; [18]
  AUC0-t: 183.2765 (40.5712) h · ng/mL
  Cmax: 7.6733 (1.6139) ng/mL
  t1/2: 39.0473 (19.0557) hr
  Tmax: 12.000 (10.00, 12.00) hr
[9]; [19]
  AUC0-t: 307.4702 (66.2889) h · ng/mL
  Cmax: 12.7950 (3.1122) ng/mL
  Tmax: 12.025 (12.00, 30.03) hr
[9]; [20]
  AUC0-t: 272.6761 (57.5614) h · ng/mL
  Cmax: 11.2820 (2.1914) ng/mL
  Tmax: 18.000 (12.00, 18.00) hr
[9]; [21]
  AUC0-t: 413.2388 (193.5541) h · ng/mL
  Tmax: 21.050 (18.00, 30.00) hr

## COc1cc2c(cc1OC)C(=O)C(CC1CCN(Cc3ccccc3)CC1)C2 (stereo not shown) [Donepezil, reference compound]
[10]
  branchpoints per neuron: significantly and robustly increased
  number of neurites per neuron: significantly and robustly increased
  total neurite length per neuron: significantly and robustly increased
